According to ChEMBL document CHEMBL3507680, “University of Dundee, Gates Library screen for HepG2 cell viability”:

Test: Human HepG2 cell viability assay in 384 well format
Type: toxicity, cell-based
Parameters: dose 125 nL, time 70.5 hour; cytotoxicity at 70.5 h: concentration not given beside the values
Conditions: HepG2 cells, read-out: Inhibition

| Structure (SMILES) | cytotoxicity at 70.5 h [%] |
| --- | --- |
| Cc1noc(C2CCN(C(=O)CN(C)c3ccc(Cl)cn3)CC2)n1 | -20.9 |
| COCCN1CCN(CCCc2nnnn2-c2ccccc2)CC1 | -14.2 |
| Cc1noc(C)c1CN1CCC2(CC1)CN(c1ccccn1)CCO2 | 17.3 |
| CCCN1CCCC2(CCN(Cc3cncn3C3CCCCC3)C2)C1=O (centres undefined) | -7.64 |
| C/C(NC(=O)c1cccs1)=C1\C(=O)C[C@@H]2[C@H]1C2(C)C | -10 |
| CCN(CC1CCOC1)C(=O)c1ccn(-c2ccc(OC)cc2)n1 (centres undefined) | -3.5 |
| Cc1cc(C)n(CC2CCCCN2Cc2cscn2)n1 (centres undefined) | -13.4 |
| O=C(N1CCCC1)N1CCC2(CC1)CN(c1cccnc1)C(=O)CO2 | -6.88 |
| N#CC1COCCN1C(=O)c1ccc2[nH]cnc2c1 (centres undefined) | -1.24 |
| COCCN1C[C@@H]2[C@@H](OC)CCN(Cc3cccc(C)n3)[C@@H]2C1 | -8.62 |
| CC1(C(=O)NCc2cccnc2Oc2ccc(F)c(F)c2)CCCNC1 (centres undefined) | 8.1 |
| COc1ccc(CNC(=O)NCC(O)(c2cccs2)C2CC2)cc1 (centres undefined) | -6.74 |
| Cc1ccc([C@@H]2CN(C(=O)c3ccccc3C)C[C@H]2N(C)C)cc1 | 2.46 |
| NC(=O)NCC(=O)N1CCC2(CC1)c1ccccc1CC2O (centres undefined) | -11.6 |
| OC1(CNCCN2CCCc3ccccc32)CCNC1 (centres undefined) | -11.6 |
| COc1ncnc2c1CCN(Cc1cccs1)CC2 | -2.23 |
| O=C1CCCN1Cc1ncn2c1CN(C(=O)NC1CCCC1)CCC2 | 5.73 |
| O=C(c1c2c(NCC3CC3)ncnc2n2ccccc12)N1CCCC1 | 0.851 |
| CCn1nc(C)c2ccn(CC(=O)NCCCOC)c(=O)c21 | -6.99 |
| O=C(N1CCCC1)N1CCC2(CCN(Cc3ccccn3)C2=O)C1 (centres undefined) | 2.54 |
| Cc1nc2n(n1)CC(NCc1nc3ccccc3o1)CC2 (centres undefined) | 1.97 |
| Cc1nc(O)cc(C2CCN(Cc3cccc(F)c3F)C2)n1 (centres undefined) | -14.5 |
| O=S(=O)(CCCn1cncn1)Cc1ccccc1Cl | -6.92 |

| Structure (SMILES) | cytotoxicity at 70.5 h [%] |
| --- | --- |
| Cc1cc(C2CCCN(C(=O)c3c(C)nn4cccnc34)C2)n[nH]1 (centres undefined) | -3.82 |
| CN(Cc1cc(-c2ccccc2)no1)C1CCCN(c2cccnn2)C1 (centres undefined) | -13.5 |
| Cn1cc(CN2CCc3ncn(C)c3C2COCc2cccnc2)cn1 (centres undefined) | -0.736 |
| COCC1c2c(cnn2CC2CC2)CCN1Cc1ccsc1 (centres undefined) | -20.6 |
| COc1ccc(C(=O)Nc2ccccc2-c2ccc(=O)n(C)n2)nn1 | 1.94 |
| Cn1cc(NS(=O)(=O)c2ccc(F)c(F)c2)ccc1=O | -7.99 |
| Cc1cnc(C(=O)NCc2ccnc(N(C)C)c2)cn1 | -2.67 |
| Cc1ccc(N2CCO[C@H]3CN(Cc4cnn(C)c4)C[C@H]32)nn1 | -19.2 |
| CC(C)N(C)C(=O)c1ccc(CNc2cncc(Cl)n2)cc1 | -115 |
| Cc1nc(C)n(CC2CCCCN2Cc2cn3ccccc3n2)n1 (centres undefined) | -19.3 |
| CN(C)c1ccc(CN(CC2CCCO2)C(=O)c2csnn2)cc1 (centres undefined) | -14.8 |
| COCCN1CCOCC12CCN(C(=O)c1c[nH]c3ccccc13)CC2 | -13.9 |
| N#Cc1cccnc1NCCNC(=O)N1CCCC(N2CCCC2)C1 (centres undefined) | 10.7 |
| CCC(=O)N(CCC(=O)O)Cc1ccc(F)c(F)c1 | -7.91 |
| CCC(CNC1CCN(C(C)=O)CC1)Oc1ccccc1Cl (centres undefined) | 5.02 |
| CC[C@@H](CO)Nc1nccc(-c2c[nH]c3cc(C(=O)OC)ccc23)n1 | -2.08 |
| Cc1nc(C)n(CC2CCCN2Cc2cc(C)on2)n1 (centres undefined) | -1.6 |
| CCn1nc(C)c2nnn(CC(=O)Nc3ccc(C)c(C)c3)c(=O)c21 | -7.31 |
| CCc1n[nH]c(C2CN(C(=O)CCOCC(F)(F)F)CCO2)n1 (centres undefined) | -12.9 |
| Cn1cc(CNCCOc2ccc(F)c(F)c2)c(-c2cccnc2)n1 | -5.61 |
| CCCn1nnnc1COc1cc(OC)ccc1C(N)=O | -7.31 |
| CC(OCC1CC1)C(=O)N1CCCN(Cc2cnn(C)c2)CC1 (centres undefined) | 24.6 |
| Cc1cc(C(=O)N2CCn3cc(CN4CCOCC4)nc3C2)no1 | -7.09 |

| Structure (SMILES) | cytotoxicity at 70.5 h [%] |
| --- | --- |
| CCC(=O)Nc1cccc(OCC(=O)N(C)Cc2ccon2)c1 | 8.51 |
| CC(C)C[C@H](N)COc1cccc(F)c1Oc1cccc(Cl)c1 | 26.3 |
| CN1C(=O)c2ccc(NC(=O)CSc3ccc4c(c3)CCC4)cc2C1=O | -3.82 |
| O=C(CCn1ccc2ccc(Br)cc21)NCc1ccc(C(=O)O)cc1 | -21.2 |
| COC(=O)c1ccc(CN2CCC(c3noc(C)n3)CC2)s1 | -8.54 |
| c1csc(CN2C[C@@H]3COC[C@]3(COCc3ccncc3)C2)c1 | 28.4 |
| c1cnn(CCNCc2ccc(N3CCCCC3)cc2)c1 | -13.6 |
| CC(NC1CCN(C(=O)C2CCCCC2)CC1)c1nccs1 (centres undefined) | -6.15 |
| CCN(C)CCNC(=O)Cc1nc(-c2ccco2)oc1C | -13.2 |
| Cc1ccc(NC(=O)N2C[C@H]3CC[C@@H]2CN(Cc2cscn2)C3)cc1 | -6.47 |
| N#Cc1ccc(C(=O)N(C2CC2)C2CC(=O)NC2=O)cc1 (centres undefined) | -8.96 |
| CC(C)CCNC(=O)NC(C)c1nncn1C (centres undefined) | 22 |
| O=C(NS(=O)(=O)Cc1ccon1)c1ccsc1 | -3.39 |
| Cc1cc(C)c(Cn2cncn2)cc1CN1CC[C@H](CO)[C@@H](O)C1 | 6.21 |
| O=C(N1CCCC1)N1CCO[C@H]2[C@@H](OCc3cccnc3)CC[C@@H]21 | -8.11 |
| CCOc1ccc(OCCN2CCC(N3CCNC3=O)CC2)cc1 | 19 |
| O=C1CC(NCc2cnc(C3CCCCC3)nc2)CN1c1ccccc1 (centres undefined) | 13.8 |
| COc1ccccc1CN1C[C@@H]2CN(C(C)=O)CCO[C@@H]2C1 | -1.68 |
| CCc1nc(CNc2ccc(F)cc2I)no1 | 2.16 |
| COc1ccc2c(c1)OCC(Cc1cnc(N)c(C)c1)C2 (centres undefined) | 1.49 |
| O=C(NCc1ccco1)N1CCOC(c2ccccc2Cl)C1 (centres undefined) | -15.6 |
| Cn1nnnc1SCC1COc2ccccc2O1 (centres undefined) | 0.146 |
| CN(C)CC(c1ccccc1)N(C)C(=O)c1cccc(NCC(=O)O)c1 (centres undefined) | -0.106 |

| Structure (SMILES) | cytotoxicity at 70.5 h [%] |
| --- | --- |
| COc1ccccc1OCCCc1cncc(C(N)=O)c1 | -14.6 |
| CC(=O)N[C@H]1CCO[C@@H](c2cccc(NC(=O)C(C)(C)C)c2)C1 | -7.68 |
| O=C(NCC1(c2ccc(F)cc2)CC1)N1CCC2(CCOC2)C1 (centres undefined) | 13.9 |
| CC(C)CN1C(=O)CO[C@@H]2CN(C(=O)C3CCOCC3)C[C@H]21 | -4.41 |
| CCC(O)CN1CCN(C(=O)Cc2cc(C)ccc2OC)CC1 (centres undefined) | -1.58 |
| CCC(NC(=O)CNC(=O)OC)c1cc(F)ccc1F (centres undefined) | -2.42 |
| N#CCCN(CCC#N)Cc1ccc(Br)c2cccnc12 | 4.54 |
| CCC(NC(=O)NC1CCN(S(C)(=O)=O)CC1)c1cccs1 (centres undefined) | -11.5 |
| COCC(=O)N1CCCC1c1cccc(Nc2ncc(C)s2)n1 (centres undefined) | 0.0728 |
| Cc1ccc(S(N)(=O)=O)cc1C(=O)NC1CCCC1 | -1.13 |
| Cc1noc(C)c1S(=O)(=O)N(C)Cc1nn(C)c(Cl)c1Cl | 24.3 |
| CC(C)NC(=O)[C@H](C)NC(=O)N1CCN(c2ccc(Cl)cc2)CC1 | -15.6 |
| CS(=O)(=O)N1CCC(Oc2ccc(C(=O)N3CCSCC3)cc2Cl)CC1 | 0.994 |
| O=C1CCC(C(=O)N2CCOC(Cc3ccccc3Cl)C2)=NN1 (centres undefined) | -8.63 |
| c1csc(CN2CCCn3cnc(COCC4CC4)c3C2)c1 | 0.853 |
| O=C(NCc1nnc2n1CCC2)N1CCc2sccc2C1 | -6.3 |
| CCOC(=O)[C@H]1[C@@H](O)C(=O)N(C)C12CCN(C(=O)c1ccccc1)CC2 | -2.45 |
| COCC1CN(C(=O)Cc2ccccn2)Cc2c1cnn2CC1CC1 (centres undefined) | -13.1 |
| CC(C)=CCCC1(C)CCC(=O)N(CCc2nc(N)cc(O)n2)C1 (centres undefined) | -6.54 |
| COCC1CN(Cc2ccc3c(c2)OCO3)Cc2ncn(C)c21 (centres undefined) | -12.8 |
| Cc1nc2c(c(C)c1CC(=O)NCc1cccs1)c(=O)[nH]n2C | -1.43 |
| COc1cccc(CNCc2c(C(C)C)nn(C)c2N(C)C)c1 | 1.8 |
| O=C(O)C1(Oc2ccc3ccccc3c2)CCN(c2ncccn2)CC1 | -0.873 |

| Structure (SMILES) | cytotoxicity at 70.5 h [%] |
| --- | --- |
| CC(C)(NCc1ccc(C#N)cc1)c1ccc2c(c1)OCO2 | 12.3 |
| CC(C)(C)c1nnc2n1C(C(=O)N1CCCC1)CC2 (centres undefined) | -12.7 |
| Cn1cc(CN2CCCC3(CCN(C(=O)c4ccccn4)C3)C2)cn1 (centres undefined) | -12 |
| O=C(COC1CCCC1)Nc1ncn(CC(=O)N2CCCCCC2)n1 | -8.06 |
| CC(C)(C)S(=O)(=O)CCNC(=O)c1cnc(-c2ccccc2)nc1 | -0.525 |
| N#Cc1cc(F)ccc1CN1CCCCC1Cn1cccn1 (centres undefined) | -1.56 |
| CO[C@H]1CCN(C(=O)c2ccsc2)[C@@H]2CN(CC3CC3)C[C@H]12 | -7.14 |
| NC(=O)Cc1ccc(NC(=O)C2CCOCC2)cc1 | -3.85 |
| Cc1cccc(-c2noc(Cn3nc(C(N)=O)ccc3=O)n2)c1 | -4.08 |
| CCOc1ccc(NC(=O)Nc2cc(N3CCCCC3)ncn2)cc1 | -1.28 |
| COc1ccc(NC(=O)CCN2CC=C(c3cnn(C)c3)CC2)c(C)c1 | 2.12 |
| CCNC(=O)NC(=O)C(C)N(C)CCOc1ccccc1C (centres undefined) | -12.4 |
| CN(CC(=O)N1CCCCC1c1nccs1)C1CC1 (centres undefined) | 28.5 |
| c1nc2c(c(N3CCOCC3)n1)CCNCC2 | -4.52 |
| COC(=O)c1ccc(N2CCN(Cc3csc(C)n3)CC2)nn1 | -14.7 |
| CCC[C@]12CN3C[C@](C)(CN(C1)C3c1[nH]c(=O)[nH]c(=O)c1C)C2=O (some centres undefined) | -9.33 |
| N#Cc1cccc(CN2Cc3nccn3CC(CN3CCCC3)C2)c1 (centres undefined) | 0.61 |
| Cc1ccc(-c2ccc(C(=O)NCCC(=O)N(C)C)c(F)c2)cc1 | -6.22 |
| Cc1cc(CN2CCOC(CN(C)C)C2)no1 (centres undefined) | 9.18 |
| CCN(Cc1nc(C)no1)C(=O)C1CC(=O)N(Cc2cccnc2)C1 (centres undefined) | 17.6 |
| COc1ccc(N(CCC(N)=O)C(=O)CSc2ccc(F)c(F)c2)cc1 | -12.7 |
| O=C(NCC1CC1)C1CN(C(=O)Cc2cccs2)CC12CCOCC2 (centres undefined) | 1.89 |
